In patent publication US20070128217A1 (priority 2003, published 2007):

How the values were obtained:
[1] = tested on: antibodies in sera from SARS patients (sera 1a, 1b, 2, 6, 37, 62, London, SARS-yellow, SARS-green); type: binding, human; set-up: Binding of serum 6 to linear peptides of protein X1 of SARS-CoV Urbani / Binding of serum 37 to linear peptides of protein X1 of SARS-CoV Urbani / Binding of serum 6 to looped/cyclic peptide (PEPSCAN-ELISA) / Binding of serum 37 to looped/cyclic peptide (PEPSCAN-ELISA) / Binding of serum 37 to looped/cyclic peptides of protein X1 of SARS-CoV Urbani / Binding of serum 6 to linear peptides of protein X2 / Binding of serum 37 to linear peptides of protein X2 / Binding of serum 37 to looped/cyclic peptides of protein X2 of SARS-CoV Urbani / Binding of serum 6 to linear peptides of protein M of SARS-CoV Urbani / Binding of serum 37 to linear peptides of protein M of SARS-CoV Urbani / Binding of serum 6 to looped/cyclic peptides of protein M of SARS-CoV Urbani / Binding of serum 37 to looped/cyclic peptides of protein M of SARS-CoV Urbani / Binding of serum 6 to linear peptides of protein X3 of SARS-CoV Urbani / Binding of serum 37 to linear peptides of protein X3 of SARS-CoV Urbani / Binding of serum 37 to looped/cyclic peptides of protein X3 of SARS-CoV Urbani / Binding of serum 6 to linear peptides of protein X4 of SARS-CoV Urbani / Binding of serum 37 to linear peptides of protein X4 of SARS-CoV Urbani / Binding of serum 37 to looped/cyclic peptides of protein X4 of SARS-CoV Urbani / Binding of serum 6 to linear peptides of protein X5 of SARS-CoV Urbani / Binding of serum 37 to linear peptides of protein X5 of SARS-CoV Urbani / Binding of serum 37 to looped/cyclic peptides of protein X5 of SARS-CoV Urbani / Binding of serum 6 to linear peptides of protein N of SARS-CoV Urbani / Binding of serum 37 to linear peptides of protein N of SARS-CoV Urbani / Binding of serum 6 to linear peptide (PEPSCAN-ELISA) / Binding of serum 1a to looped/cyclic peptides of protein N of SARS-CoV Urbani / Binding of serum 1b to looped/cyclic peptides of protein N of SARS-CoV Urbani / Binding of serum 2 to looped/cyclic peptides of protein N of SARS-CoV Urbani / Binding of serum 6 to looped/cyclic peptides of protein N of SARS-CoV Urbani / Binding of serum 37 to looped/cyclic peptides of protein N of SARS-CoV Urbani / Binding of serum 62 to looped/cyclic peptides of protein N of SARS-CoV Urbani / Binding of serum London to looped/cyclic peptides of protein N of SARS-CoV Urbani / Binding of serum SARS-green to looped/cyclic peptides of protein N of SARS-CoV Urbani: unit not given here
[2] = tested on: control sera (pooled serum of ten healthy LUMC hospital workers; commercial negative donor pooled serum from the Dutch bloodbank); type: binding, human; set-up: Binding of Control serum LUMC to linear peptides / Binding of Control serum Blood-bank to linear peptides / Binding of Control serum LUMC to looped peptides / Binding of Control Serum Blood-Bank to Looped peptides / Binding of Control serum LUMC to linear peptides of the protein M of SARS-CoV Urbani / Binding of Control serum Blood-bank to linear peptides of the protein M of SARS-CoV Urbani / Binding of Control serum LUMC to looped peptides of the protein M of SARS-CoV Urbani / Binding of Control Serum Blood-Bank to Looped peptides of the protein M of SARS-CoV Urbani: unit not given here
[3] = tested on: rabbit serum obtained by immunizing a rabbit with the SARS-CoV strain Frankfurt 1; type: binding; set-up: Binding of a rabbit serum to linear peptides / Binding of a rabbit serum to looped peptides / Rabbit serum linear peptides / Rabbit serum looped peptides / Binding of a rabbit serum to linear peptides of protein N of SARS-CoV Urbani (Rabbit serum linear peptides) / Binding of a rabbit serum to looped/cyclic peptides of protein N of SARS-CoV Urbani (Rabbit serum looped peptides): unit not given here

RARSVSPKLFIRQEE
0.4: Binding of serum 2 to linear peptides of protein X4 of SARS-CoV Urbani [1]
0.6: Binding of serum 1b to linear peptides of protein X4 of SARS-CoV Urbani [1] | Binding of serum 2 to looped/cyclic peptides of protein X4 of SARS-CoV Urbani [1] | Binding of serum 6 to linear peptides of protein X4 of SARS-CoV Urbani [1] | Binding of serum SARS-green to linear peptides of protein X4 of SARS-CoV Urbani [1] | Binding of Control serum Blood-bank to linear peptides [2]
0.7: Binding of serum 1b to looped/cyclic peptides of protein X4 of SARS-CoV Urbani [1] | Binding of serum 37 to linear peptides of protein X4 of SARS-CoV Urbani [1] | Binding of serum 37 to looped/cyclic peptides of protein X4 of SARS-CoV Urbani [1] | Binding of serum 62 to looped/cyclic peptides of protein X4 of SARS-CoV Urbani [1] | Binding of serum SARS-green to looped/cyclic peptides of protein X4 of SARS-CoV Urbani [1] | Binding of serum SARS-yellow to looped/cyclic peptides of protein X4 of SARS-CoV Urbani [1] | Binding of Control Serum Blood-Bank to Looped peptides [2]
0.5: Binding of serum London to looped/cyclic peptides of protein X4 of SARS-CoV Urbani [1] | Binding of Control serum LUMC to linear peptides [2]
recognized: Recognition of the peptide by the rabbit serum [3]
0.1: Binding of serum SARS-yellow to linear peptides of protein X4 of SARS-CoV Urbani [1]
0.8: Binding of serum 1a to linear peptides of protein X4 of SARS-CoV Urbani [1] | Binding of serum 1a to looped/cyclic peptides of protein X4 of SARS-CoV Urbani [1] | Binding of serum 6 to looped/cyclic peptides of protein X4 of SARS-CoV Urbani [1] | Binding of serum 62 to linear peptides of protein X4 of SARS-CoV Urbani [1] | Binding of serum London to linear peptides of protein X4 of SARS-CoV Urbani [1] | Binding of Control serum LUMC to looped peptides [2]

KGFQFICNLLLLFVT
0.6: Binding of serum 1a to linear peptides of protein X1 of SARS-CoV Urbani [1] | Binding of serum 1a to looped/cyclic peptide (PEPSCAN-ELISA) [1] | Binding of serum 2 to linear peptides of protein X1 of SARS-CoV Urbani [1] | Binding of serum 37 to linear peptides of protein X1 of SARS-CoV Urbani [1] | Binding of serum 37 to looped/cyclic peptide (PEPSCAN-ELISA) [1] | Binding of serum 62 to looped/cyclic peptide (PEPSCAN-ELISA) [1] | Binding of serum SARS-yellow to linear peptides of protein X1 of SARS-CoV Urbani [1] | Binding of serum SARS-yellow to looped/cyclic peptide (PEPSCAN-ELISA) [1] | Binding of a rabbit serum to linear peptides [3]
0.7: Binding of serum 62 to linear peptides of protein X1 of SARS-CoV Urbani [1] | Binding of Control serum Blood-bank to linear peptides [2] | Binding of Control serum LUMC to linear peptides [2]
0.3: Binding of serum London to linear peptides of protein X1 of SARS-CoV Urbani [1]
1.0: Binding of serum 6 to looped/cyclic peptide (PEPSCAN-ELISA) [1]
0.2: Binding of serum SARS-green to linear peptides of protein X1 of SARS-CoV Urbani [1]
0.4: Binding of serum 1b to looped/cyclic peptide (PEPSCAN-ELISA) [1] | Binding of serum 2 to looped/cyclic peptide (PEPSCAN-ELISA) [1] | Binding of serum SARS-green to looped/cyclic peptide (PEPSCAN-ELISA) [1]
0.5: Binding of serum 1b to linear peptides of protein X1 of SARS-CoV Urbani [1] | Binding of serum 6 to linear peptides of protein X1 of SARS-CoV Urbani [1] | Binding of Control Serum Blood-Bank to Looped peptides [2] | Binding of Control serum LUMC to looped peptides [2] | Binding of a rabbit serum to looped peptides [3]
1.1: Binding of serum London to looped/cyclic peptide (PEPSCAN-ELISA) [1]

VSQIQLSLLKVTAFQ
0.6: Binding of serum 6 to looped/cyclic peptides of protein X2 of SARS-CoV Urbani [1] | Binding of serum 37 to linear peptides of protein X2 [1] | Binding of serum 62 to looped/cyclic peptides of protein X2 of SARS-CoV Urbani [1] | Binding of serum SARS-yellow to looped/cyclic peptides of protein X2 of SARS-CoV Urbani [1] | Binding of Control Serum Blood-Bank to Looped peptides [2] | Binding of Control serum LUMC to looped peptides [2] | Binding of a rabbit serum to linear peptides [3]
0.5: Binding of serum 1a to linear peptides of protein X2 [1] | Binding of serum 1a to looped/cyclic peptides of protein X2 of SARS-CoV Urbani [1] | Binding of serum 6 to linear peptides of protein X2 [1] | Binding of Control serum Blood-bank to linear peptides [2]
0.8: Binding of serum London to looped/cyclic peptides of protein X2 of SARS-CoV Urbani [1] | Binding of Control serum LUMC to linear peptides [2]
0.1: Binding of serum SARS-green to linear peptides of protein X2 [1]
0.3: Binding of serum 62 to linear peptides of protein X2 [1] | Binding of serum London to linear peptides of protein X2 [1] | Binding of serum SARS-green to looped/cyclic peptides of protein X2 of SARS-CoV Urbani [1]
0.4: Binding of serum 1b to linear peptides of protein X2 [1] | Binding of serum 1b to looped/cyclic peptides of protein X2 of SARS-CoV Urbani [1] | Binding of serum 2 to linear peptides of protein X2 [1] | Binding of serum 2 to looped/cyclic peptides of protein X2 of SARS-CoV Urbani [1] | Binding of serum 37 to looped/cyclic peptides of protein X2 of SARS-CoV Urbani [1] | Binding of serum SARS-yellow to linear peptides of protein X2 [1] | Binding of a rabbit serum to looped peptides [3]
